Measurements taken from patent US20230040770A1, “HETEROCYCLIC COMPOUND AND USE THEREOF” (TAKEDA PHARMACEUTICAL COMPANY LIMITED, priority 2019, published 2023).

The compounds below were run against T1, human orexin type 2 receptor (Homo sapiens, UniProt O43614) (assay: Measurement of orexin type 2 receptor agonist activity (calcium indicator fluorescence, CHO cells forcibly expressing human OX2 receptor)). Conditions: compound at 3 μM; 0% = DMSO, 100% = orexin A (human) 10 nM.
T1 construct: expressed in transfected cells
T1 sequence (O43614 1-444): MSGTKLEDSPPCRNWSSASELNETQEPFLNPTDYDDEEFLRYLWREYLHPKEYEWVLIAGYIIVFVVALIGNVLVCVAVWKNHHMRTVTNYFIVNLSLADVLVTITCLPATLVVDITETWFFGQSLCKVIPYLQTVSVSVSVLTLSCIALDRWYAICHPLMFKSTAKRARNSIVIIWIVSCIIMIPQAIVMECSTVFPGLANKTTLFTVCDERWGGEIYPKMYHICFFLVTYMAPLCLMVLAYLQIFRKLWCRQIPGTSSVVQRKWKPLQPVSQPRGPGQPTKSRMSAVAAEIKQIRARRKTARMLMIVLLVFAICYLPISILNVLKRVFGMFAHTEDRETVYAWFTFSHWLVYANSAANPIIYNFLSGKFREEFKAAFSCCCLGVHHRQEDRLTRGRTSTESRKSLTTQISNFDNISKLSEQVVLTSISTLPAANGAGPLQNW
Type: cell-based
Procedure, shortened: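 CHO-dhfr cells stably expressing human OX2R, loaded with Fluo-4 AM (30 min 37 °C, then 30 min RT), then given test compound. Calcium fluorescence read by FDSS over ~2 min. Activity (%) scaled from DMSO (0%) to 10 nM final orexin A (100%).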
For `CC(C)C(=O)N1C[C@H](F)[C@H](NS(C)(=O)=O)[C@@H]1Cc1cccc(-c2cc(F)cc(F)c2)c1F` [Example 316, N-{(2S,3R,4S)-4-fluoro-1-(2-methylpropanoyl)-2-[(2,3′,5′-trifluoro[1,1′-biphenyl]-3-yl)methyl]pyrrolidin-3-yl}methanesulfonamide], the “OX2R agonist activity (3 μM, %)” value was 101%. `CS(=O)(=O)N[C@H]1[C@@H](F)CN(C(=O)C2CCO2)[C@H]1Cc1cccc(-c2cccc(F)c2)c1F` (stereo partly drawn) [Example 323, N-[(2S,3R,4S)-2-[(2,3′-difluoro[1,1′-biphenyl]-3-yl)methyl]-4-fluoro-1-(oxetane-2-carbonyl)pyrrolidin-3-yl]methanesulfonamide] was tested, and the “OX2R agonist activity (3 μM, %)” value was 92%. For `CS(=O)(=O)N[C@H]1[C@@H](F)CN(C(=O)C2CCO2)[C@H]1Cc1cccc(-c2cc(F)cc(F)c2)c1F` (stereo partly drawn) [Example 324, N-{(2S,3R,4S)-4-fluoro-1-(oxetane-3-2-carbonyl)-2-[(2,3′,5′-trifluoro[1,1′-biphenyl]-3-yl)methyl]pyrrolidin-3-yl}methanesulfonamide], the “OX2R agonist activity (3 μM, %)” value was 91%. `CS(=O)(=O)N[C@H]1[C@@H](F)CN(C(=O)C2CCO2)[C@H]1Cc1cccc(-c2cccc(Cl)c2)c1F` (stereo partly drawn) [Example 328, N-[(2S,3R,4S)-2-[(3′-chloro-2-fluoro[1,1′-biphenyl]-3-yl)methyl]-4-fluoro-1-(oxetane-2-carbonyl)pyrrolidin-3-yl]methanesulfonamide] was tested, and the “OX2R agonist activity (3 μM, %)” value was 86%. `CCS(=O)(=O)N[C@H]1[C@@H](F)CN(C(=O)N(C)C)[C@H]1Cc1cccc(-c2cc(F)cc(F)c2)c1F` [Example 329, (2S,3R,4S)-3-[(ethanesulfonyl)amino]-4-fluoro-N,N-dimethyl-2-[(2,3′,5′-trifluoro[1,1′-biphenyl]-3-yl)methyl]pyrrolidine-1-carboxamide] was tested, and the “OX2R agonist activity (3 μM, %)” value was 88%. For `CCS(=O)(=O)N[C@H]1[C@@H](F)CN(C(=O)N(C)C)[C@H]1Cc1cccc(-c2cccc(F)c2F)c1F` [Example 330, (2S,3R,4S)-3-[(ethanesulfonyl)amino]-4-fluoro-N,N-dimethyl-2-[(2,2′,3′-trifluoro[1,1′-biphenyl]-3-yl)methyl]pyrrolidine-1-carboxmaide], the “OX2R agonist activity (3 μM, %)” value was 98%. `CCS(=O)(=O)N[C@H]1[C@@H](F)CN(C(=O)N(C)C)[C@H]1Cc1cccc(-c2cccc(Cl)c2)c1F` [Example 332, (2S,3R,4S)-2-[(3′-chloro-2-fluoro[1,1′-biphenyl]-3-yl)methyl]-3-[(ethanesulfonyl)amino]-4-fluoro-N,N-dimethylpyrrolidine-1-carboxamide] was tested, and the “OX2R agonist activity (3 μM, %)” value was 95%. With `CCS(=O)(=O)N[C@H]1[C@@H](F)CN(C(=O)N(C)C)[C@H]1Cc1cccc(-c2cccc(C)c2)c1F` [Example 333, (2S,3R,4S)-3-[(ethanesulfonyl)amino]-4-fluoro-2-[(2-fluoro-3′-methyl[1,1′-biphenyl]-3-yl)methyl]-N,N-dimethylpyrrolidine-1-carboxamide] the “OX2R agonist activity (3 μM, %)” value was 78%. For `CN(C)C(=O)N1C[C@H](F)[C@H](NS(=O)(=O)N(C)C)[C@@H]1Cc1cccc(-c2cccc(F)c2)c1F` [Example 344, (2S,3R,4S)-2-[(2,3′-difluoro[1,1′-biphenyl]-3-yl)methyl]-3-[(dimethylsulfamoyl)amino]-4-fluoro-N,N-dimethylpyrrolidine-1-carboxamide], the “OX2R agonist activity (3 μM, %)” value was 102%. In the case of `CCS(=O)(=O)N[C@H]1[C@@H](F)CN(C(=O)C(C)(C)O)[C@H]1Cc1cccc(-c2cc(F)cc(Cl)c2)c1F` [Example 345, N-[(2S,3R,4S)-2-[(3′-chloro-2,5′-difluoro[1,1′-biphenyl]-3-yl)methyl]-4-fluoro-1-(2-hydroxy-2-methylpropanoyl)pyrrolidin-3-yl]ethanesulfonamide], the “OX2R agonist activity (3 μM, %)” value is reported as 92%. For `CCS(=O)(=O)N[C@H]1[C@@H](F)CN(C(=O)C(C)(C)O)[C@H]1Cc1cccc(-c2cccc(Cl)c2)c1F` [Example 346, N-[(2S,3R,4S)-2-[(3′-chloro-2-fluoro[1,1′-biphenyl]-3-yl)methyl]-4-fluoro-1-(2-hydroxy-2-methylpropanoyl)pyrrolidin-3-yl]ethanesulfonamide], the “OX2R agonist activity (3 μM, %)” value was 93%. With `CCS(=O)(=O)N[C@H]1[C@@H](F)CN(C(=O)C(C)(C)O)[C@H]1Cc1cccc(-c2cccc(Cl)c2F)c1F` [Example 347, N-[(2S,3R,4S)-2-[(3′-chloro-2,2′-difluoro[1,1′-biphenyl]-3-yl)methyl]-4-fluoro-1-(2-hydroxy-2-methylpropanoyl)pyrrolidin-3-yl]ethanesulfonamide] the “OX2R agonist activity (3 μM, %)” value was 102%. For `CCS(=O)(=O)N[C@H]1[C@@H](F)CN(C(=O)C(C)(C)O)[C@H]1Cc1cccc(-c2cc(Cl)ccc2F)c1F` [Example 348, N-[(2S,3R,4S)-2-[(5′-chloro-2,2′-difluoro[1,1′-biphenyl]-3-yl)methyl]-4-fluoro-1-(2-hydroxy-2-methylpropanoyl)pyrrolidin-3-yl]ethanesulfonamide], the “OX2R agonist activity (3 μM, %)” value was 103%. `CCS(=O)(=O)N[C@@H]1[C@H](Cc2cccc(-c3cccc(F)c3F)c2F)N(C(=O)C2CC(F)C2)CC1(F)F` (stereo partly drawn) [Example 349, N-{(2S,3R)-4,4-difluoro-1-(3-fluorocyclobutane-1-carbonyl)-2-[(2,2′,3′-trifluoro[1,1′-biphenyl]-3-yl)methyl]pyrrolidin-3-yl}ethanesulfonamide] was tested, and the “OX2R agonist activity (3 μM, %)” value was 98%. In the case of `CCS(=O)(=O)N[C@@H]1[C@H](Cc2cccc(-c3cc(F)ccc3F)c2F)N(C(=O)C2CCO2)CC1(F)F` (stereo partly drawn) [Example 356, N-{(2S,3R)-4,4-difluoro-1-(oxetane-2-carbonyl)-2-[(2,2′,5′-trifluoro[1,1′-biphenyl]-3-yl)methyl]pyrrolidin-3-yl}ethanesulfonamide], the “OX2R agonist activity (3 μM, %)” value is reported as 97%. In the case of `CCS(=O)(=O)N[C@H]1[C@@H](F)CN(C(=O)C23CC(C2)C3)[C@H]1Cc1cccc(-c2cc(F)cc(F)c2)c1F` [Example 365, N-{(2S,3R,4S)-1-(bicyclo[1.1.1]pentane-1-carbonyl)-4-fluoro-2-[(2,3′,5′-trifluoro[1,1′-biphenyl]-3-yl)methyl]pyrrolidin-3-yl}ethanesulfonamide], the “OX2R agonist activity (3 μM, %)” value is reported as 93%. With `CCS(=O)(=O)N[C@H]1[C@@H](F)CN(C(=O)C23CC(C2)C3)[C@H]1Cc1cccc(-c2cccc(F)c2F)c1F` [Example 366, N-{(2S,3R,4S)-1-(bicyclo[1.1.1]pentane-1-carbonyl)-4-fluoro-2-[(2,2′,3′-trifluoro[1,1′-biphenyl]-3-yl)methyl]pyrrolidin-3-yl}ethanesulfonamdie] the “OX2R agonist activity (3 μM, %)” value was 96%. `CCS(=O)(=O)N[C@H]1[C@@H](F)CN(C(=O)C2CCO2)[C@H]1Cc1cccc(-c2cccc(Cl)c2)c1F` (stereo partly drawn) [Example 368, N-[(2S,3R,4S)-2-[(3′-chloro-2-fluoro[1,1′-biphenyl]-3-yl)methyl]-4-fluoro-1-(oxetane-2-carbonyl)pyrrolidin-3-yl]ethanesulfonamide] was tested, and the “OX2R agonist activity (3 μM, %)” value was 95%. In the case of `CC(C)(O)C(=O)N1C[C@H](F)[C@H](NS(=O)(=O)C2CC2)[C@@H]1Cc1cccc(-c2cccc(F)c2)c1F` [Example 369, N-[(2S,3R,4S)-2-[(2,3′-difluoro[1,1′-biphenyl]-3-yl)methyl]-4-fluoro-1-(2-hydroxy-2-methylpropanoyl)pyrrolidin-3-yl]cyclopropanesulfonamide], the “OX2R agonist activity (3 μM, %)” value is reported as 85%. For `CC(C)(O)C(=O)N1C[C@H](F)[C@H](NS(=O)(=O)C2CC2)[C@@H]1Cc1cccc(-c2cc(F)cc(F)c2)c1F` [Example 370, N-{(2S,3R,4S)-4-fluoro-1-(2-hydroxy-2-methylpropanoyl)-2-[(2,3′,5′-trifluoro[1,1′-biphenyl]-3-yl)methyl]pyrrolidin-3-yl}cyclopropanesulfonamide], the “OX2R agonist activity (3 μM, %)” value was 91%. `CC(C)(O)C(=O)N1C[C@H](F)[C@H](NS(=O)(=O)C2CC2)[C@@H]1Cc1cccc(-c2cccc(F)c2F)c1F` [Example 371, N-{(2S,3R,4S)-4-fluoro-1-(2-hydroxy-2-methylpropanoyl)-2-[(2,2′,3′-trifluoro[1,1′-biphenyl]-3-yl)methyl]pyrrolidin-3-yl}cyclopropanesulfonamide] was tested, and the “OX2R agonist activity (3 μM, %)” value was 94%. In the case of `O=C(C1CC1)N1C[C@H](F)[C@H](NS(=O)(=O)C2CC2)[C@@H]1Cc1cccc(-c2cccc(F)c2)c1F` [Example 372, N-{(2S,3R,4S)-1-(cyclopropanecarbonyl)-2-[(2,3′-difluoro[1,1′-biphenyl]-3-yl)methyl]-4-fluoropyrrolidin-3-yl}cycloproapnesulfonamide], the “OX2R agonist activity (3 μM, %)” value is reported as 89%. `O=C(C1CC1)N1C[C@H](F)[C@H](NS(=O)(=O)C2CC2)[C@@H]1Cc1cccc(-c2cc(F)cc(F)c2)c1F` [Example 373, N-{(2S,3R,4S)-1-(cyclopropanecarbonyl)-4-fluoro-2-[(2,3′,5′-trifluoro[1,1′-biphenyl]-3-yl)methyl]pyrrolidin-3-yl}cyclopropanesulfonamide] was tested, and the “OX2R agonist activity (3 μM, %)” value was 88%. In the case of `CS(=O)(=O)N[C@H]1[C@@H](F)CN(C(=O)C23CC(C2)C3)[C@H]1Cc1cccc(-c2cc(F)cc(F)c2)c1F` [Example 374, N-{(2S,3R,4S)-1-(bicyclo[1.1.1]pentane-1-carbonyl)-4-fluoro-2-[(2,3′,5′-trifluoro[1,1′-biphenyl]-3-yl)methyl]pyrrolidin-3-yl}methanesulfonamide], the “OX2R agonist activity (3 μM, %)” value is reported as 93%.
